Laboratory results from patent publication US8865913B2, “Crystalline forms and processes for their preparation” (BIAL-Portela & C.A., S.A, priority 2010, dated 2014).
One block for each compound: values may come before it.

Legend:
Format in all cases: physicochemical
[1] = Moisture sorption analysis (VTI SGA-100, 5 to 95% RH); conditions: for hysteresis upon desorption: decreasing relative humidity; for hysteresis upon desorption / weight loss between ~95% and ~5% RH: desorption; for weight loss between ~95% and ~5% RH: ~95% to ~5% RH; for weight gain between ~5% and ~75% RH / total water uptake between ~5% and ~95% RH / weight gain between ~75% and ~95% RH: sorption; for weight gain between ~5% and ~75% RH: ~5% to ~75% RH; for total water uptake between ~5% and ~95% RH: ~5% to ~95% RH; for weight gain between ~75% and ~95% RH: ~75% to ~95% RH
Procedure: 9. Moisture Sorption Analysis
Moisture sorption/desorption data were collected on a VTI SGA-100 Vapor Sorption Analyzer. NaCl and PVP were used as calibration standards. Samples were not dried prior to analysis. Sorption and desorption data were collected over a range from 5 to 95% RH at 10% RH increments under a nitrogen purge. The equilibrium criterion used for analysis was less than 0.0100% weight change in 5 minutes with a maximum equilibration time of 3 hours. Data were not corrected for the initial moisture content of the samples.

[2] = Aqueous vapor stress experiments
Procedure: d. Aqueous Vapor Stress Experiments
Samples of starting material were exposed to ˜85% and ˜97% relative humidity at ambient temperature and ˜75% relative humidity at ˜40° C. for a specified duration.

[3] = Organic vapor stress experiments
Procedure: e. Organic Vapor Stress Experiments
Samples of starting material were exposed to vapors of a specified organic solvent for a given amount of time by placing open vials with solids tested into 20 mL vials containing solvent. Organic vapor stress experiments were conducted at ambient temperature.

[4] = Heat stress experiments of amorphous material; conditions: sample no. 3
Excerpt: i. Heat Stress Experiments
Samples of amorphous material were placed in heating ovens at temperature set below or above the glass transition, or were agitated on a shaker block at elevated temperature for a given duration.

[5] = Slow cooling of the melt experiment; conditions: 77° C., SC to RT; sample no. 3
Excerpt: j. Slow Cooling of the Melt Experiment
Samples of amorphous material were heated on a hot plate at temperature above the glass transition. The sample was then allowed to slow cool to ambient by turning the heating device off.

[6] = Mechanical stress experiments (ball mill, dry/wet grinding)
Excerpt: h. Mechanical Stress Experiments
Samples of starting material were placed in a Retsch ball mill and milled for two five-minute cycles without solvent (dry grinding) or with a small amount of solvent added (wet grinding) scraping the solids between the cycles. Ten-minute cycles were used for milling of a selected sample without addition of solvent.

[7] = Slurry experiments (incl. water activity slurries)
Procedure: Solutions were prepared by addition of a solvent or solvent mixture to the starting material with excess solids present. The mixtures were then agitated in sealed vials at either ambient or a set temperature. For agitation at subambient temperature, chilled solvent was added and the sample was immediately transferred to a freezer. After a given amount of time, the solids were isolated.

moisture retained upon desorption ([1]; desorption between ~85% and ~15% RH): 3.6-5.8 wt % | hysteresis upon desorption ([1]; listed as Sample No. 2): large hysteresis | weight loss between ~95% and ~5% RH ([1]; listed as Sample No. 2): ~8.6 wt % | weight loss between ~95% and ~5% RH ([1]; listed as amorphous compound 2): around 8.6 wt % | weight gain upon equilibration at ~5% RH ([1]; moisture sorption, listed as Sample No. 2): ~0.1 wt % | weight gain upon equilibration at ~5% RH ([1]; moisture sorption, listed as amorphous compound 2): around 0.08 wt % | weight gain between ~5% and ~75% RH ([1]; listed as Sample No. 2): approximately 1.2 wt % | weight gain between ~5% and ~75% RH ([1]; listed as amorphous compound 2): around 1.2 wt % | total water uptake between ~5% and ~95% RH ([1]; listed as Sample No. 2): ~9.9 wt % | weight gain between ~75% and ~95% RH ([1]; listed as Sample No. 2): ~8.7 wt % | weight gain between ~75% and ~95% RH ([1]; listed as amorphous compound 2): around 8.7 wt % | XRPD result after aqueous vapor stress ([2]; 75% RH, 40° C., 1 day, starting material sample no. 3): Disordered, Form A | XRPD result after aqueous vapor stress ([2]; 85% RH, 3 days, starting material sample no. 14): No peaks | XRPD result after aqueous vapor stress ([2]; 97% RH, RT, 6 days, starting material sample no. 3): Amorphous/Form A mixture | XRPD result after organic vapor stress ([3]; Acetone, 1 day, starting material sample no. 2): Form A | XRPD result after organic vapor stress ([3]; CHCl3, 1 day, starting material sample no. 2): Form A | XRPD result after organic vapor stress ([3]; EtOAc, 1 day, starting material sample no. 2): Form B | XRPD result after organic vapor stress ([3]; IPE, 2 days, starting material sample no. 3): Form A | XRPD result after heat stress ([4]; 36° C., 1 day, heating with agitation): Disordered, Form A | XRPD result after heat stress ([4]; 40° C., 3 hrs): Amorphous/Form A mixture | XRPD result after heat stress ([4]; 50° C., 3 hrs): Amorphous/Form A mixture | XRPD result after heat stress ([4]; 60° C., 3 hrs): Disordered, Form A | XRPD result after heat stress ([4]; 80° C., 3 hrs): Form A^c | XRPD result after heat stress ([4]; 80° C., 1 day): Form A^c | XRPD result after cooling from the melt [5]: Amorphous/Form A mixture
SMILES: Fc1cc(F)c2c(c1)C[C@@H](n1c(CCNCc3ccccc3)c[nH]c1=S)CO2 [Amorphous, 1-[(3R)-6,8-difluoro-3,4-dihydro-2H-1-benzopyran-3-yl]-1,3-dihydro-5-[2-[(phenylmethyl)amino]ethyl]-2H-Imidazole-2-thione]
hysteresis upon desorption ([1]; listed as amorphous compound 2): hysteresis over a range of more than 50% RH | hygroscopicity ([1]; moisture sorption, amorphous material): significant hygroscopicity (a material that exhibits ≧2.0 wt % water uptake over a specified RH range)

hysteresis upon desorption ([1]; listed as Lot 5): Small hysteresis | hysteresis upon desorption ([1]; listed as lot 5): small hysteresis | weight loss between ~95% and ~5% RH [1]: around 0.20 wt % | weight loss between ~95% and ~5% RH ([1]; listed as Lot 5): ~0.20 wt % | weight loss between ~95% and ~5% RH ([1]; listed as lot 5): ~0.20 wt % | weight change upon equilibration at ~5% RH ([1]; moisture sorption): negligible loss | weight change upon equilibration at ~5% RH ([1]; moisture sorption, listed as lot 5): negligible weight loss | weight gain between ~5% and ~75% RH [1]: around 0.02 wt % | weight gain between ~5% and ~75% RH ([1]; listed as Lot 5): ~0.02 wt % gain between ~5% and ~75% RH | weight gain between ~5% and ~75% RH ([1]; listed as lot 5): ~0.02 wt % | total water uptake between ~5% and ~95% RH ([1]; listed as lot 5): ~0.21 wt % | weight gain between ~75% and ~95% RH [1]: around 0.19 wt % | weight gain between ~75% and ~95% RH ([1]; listed as Lot 5): ~0.19 wt % gain between ~75% and ~95% RH | weight gain between ~75% and ~95% RH ([1]; listed as lot 5): ~0.19 wt % | XRPD result after aqueous vapor stress ([2]; 75% RH, 40° C., 2 days): Form A | XRPD result after aqueous vapor stress ([2]; 85% RH, 2 days): Form A | stability of the crystal form upon aqueous vapor stress ([2]; summary statement): remains stable as a crystal form | XRPD result after organic vapor stress ([3]; CHCl3, vapor stress, 11 days): Form A | XRPD result after organic vapor stress ([3]; EtOAc, vapor stress, 11 days): Form A | XRPD result after mechanical stress ([6]; Acetone, wet grinding, 2 × 5 min. cycles): Form A | XRPD result after mechanical stress ([6]; DMF, wet grinding, 2 × 5 min. cycles): Form A | XRPD result after mechanical stress ([6]; Dry grinding, 2 × 5 min. cycles): Form A (disordered) | XRPD result after mechanical stress ([6]; Dry grinding, 2 × 10 min. cycles): Form A (disordered) | XRPD result after mechanical stress ([6]; MEK, wet grinding, 2 × 5 min. cycles): Form A | XRPD result after mechanical stress ([6]; TFE, wet grinding, 2 × 5 min. cycles): Form A | XRPD result after mechanical stress ([6]; THF, wet grinding, 2 × 5 min. cycles): Form A | stability of the crystal form upon mechanical stress ([6]; summary statement): remains stable as a crystal form
SMILES: Fc1cc(F)c2c(c1)C[C@@H](n1c(CCNCc3ccccc3)c[nH]c1=S)CO2 [Form A, 1-[(3R)-6,8-difluoro-3,4-dihydro-2H-1-benzopyran-3-yl]-1,3-dihydro-5-[2-[(phenylmethyl)amino]ethyl]-2H-imidazole-2-thione]
hygroscopicity ([1]; 5% to 95% RH): low hygroscopicity (a material that exhibits <0.5 wt(weight) % water uptake over a specified relative humidity range) | hysteresis upon desorption [1]: hysteresis between around 85% to around 45% RH | weight change upon equilibration at ~5% RH ([1]; moisture sorption, listed as Lot 5): Negligible loss upon equilibration at ~5% RH

XRPD result of water activity slurry ([7]; amorphous starting material sample no. 2, Water, 50° C., 3 days, aw 1, sample no. 119): Material C (close to Form A + peaks) | XRPD result of water activity slurry ([7]; amorphous starting material sample no. 3, Acetone/water (25/75), aw 0.95, ambient, 6 days, sample no. 108): Form A^c | XRPD result of water activity slurry ([7]; amorphous starting material sample no. 3, Acetone/water (33/67), aw 0.93, ambient, 6 days, washed w/ acetone/water (33/67), sample no. 107): Form A^c | XRPD result of water activity slurry ([7]; amorphous starting material sample no. 3, Acetone/water (60/40), aw 0.89, ambient, 6 days, sample no. 106): Form A | XRPD result of water activity slurry ([7]; amorphous starting material sample no. 3, Acetone/water (82/18), aw 0.80, ambient, 6 days, sample no. 105): Form A | XRPD result of water activity slurry ([7]; amorphous starting material sample no. 3, Acetone/water (88/12), aw 0.73, ambient, 6 days, sample no. 104): Form A | XRPD result of water activity slurry ([7]; amorphous starting material sample no. 3, DMF/water (9/91), aw 0.98, RT, 5 days, washed w/ water, sample no. 115): Form A^c | XRPD result of water activity slurry ([7]; amorphous starting material sample no. 3, DMSO/water (10/90), aw 0.97, RT, 5 days, washed w/ water, sample no. 116): Form A^c | XRPD result of water activity slurry ([7]; amorphous starting material sample no. 3, EtOH/water (67/33), aw 0.82, 40° C., 2 days, sample no. 111): Form A^c | XRPD result of water activity slurry ([7]; amorphous starting material sample no. 3, Ethanol/water (20/80), aw 0.95, ambient, 6 days, sample no. 113): Form A^c | XRPD result of water activity slurry ([7]; amorphous starting material sample no. 3, Ethanol/water (47/53), aw 0.90, ambient, 6 days, sample no. 112): Form A^c | XRPD result of water activity slurry ([7]; amorphous starting material sample no. 3, Ethanol/water (70/30), aw 0.80, ambient, 6 days, sample no. 110): Form A^c | XRPD result of water activity slurry ([7]; amorphous starting material sample no. 3, Ethanol/water (80/20), aw 0.70, ambient, 6 days, sample no. 109): Form A^c | XRPD result of water activity slurry ([7]; amorphous starting material sample no. 3, IPA/water (50/50), aw 0.96, 40° C., 2 days, sample no. 114): Form A^c | XRPD result of water activity slurry ([7]; amorphous starting material sample no. 3, MeOH/water (50/50), aw 0.75, ambient, 6 days, washed w/ MeOH/water (50/50), sample no. 117): Form A^c | XRPD result of water activity slurry ([7]; amorphous starting material sample no. 3, THF/water (50/50), aw 1.03, ambient, 6 days, washed w/ THF/water (50/50), VO, RT, 1 h, sample no. 118): Form A^c | XRPD result of water activity slurry ([7]; amorphous starting material sample no. 3, Water, RT, 4 days, surfactant as wetting agent, aw 1, sample no. 121): Form A
SMILES: Fc1cc(F)c2c(c1)C[C@@H](n1c(CCNCc3ccccc3)c[nH]c1=S)CO2 [compound 2, 1-[(3R)-6,8-difluoro-3,4-dihydro-2H-1-benzopyran-3-yl]-1,3-dihydro-5-[2-[(phenylmethyl)amino]ethyl]-2H-imidazole-2-thione]
